Source: patent EP0105106A2, “Anti-bacterial composition” (DAITO KOEKI KABUSHIKI KAISHA, priority 1982, dated 1984)

Key:
[1] = tested on: Staphylococcus aureus 209P; assay: Anti-bacterial test, Chequer board method; format: cell-based
Procedure: Tests for anti-bacterial properties were conducted on compositions of the sample of chitosan and SMX, mixed according to the mixing ratios shown in Tables 1 through 3, respectively.
As strains to be tested, there are used Staphylococcus aureus 209P (a typical example of Gram positive bacteria), Escherichia coli NIHJ (a typical example of Gram negative bacteria) and Pseudomonas aeruginosa 3456.
The combined effects obtained by the present tests were determined in accordance with the Chequer board method with reference to the knowledges of Bushby et al (Bushby, S.R.M. & G.H. Hitchings: Trimethoprim. a sulfonamide potentiator. Brit. J. pharm. Chemother 33: 72 ~ 90, 1968) and Bohni et al (Bohni. E: Vergleichende bakteriologishe Untersuchungen mit der Kombination Trimethoprim/Sulfamethoxazol in vitro und in vivo. Chemotherapy. Suppl ad. 14: 1 21, 1969), both of whom reporting the combined effect between sulfamethoxazole (SMX) and trimethoprim (TMP), both of which are noted on the market at present. The results of the tests are shown in Table 1 through 3, respectively.

Escherichia coli NIHJ = assay: Survival of mice infected with Escherichia coli; format: in vivo, ICR mice (male); conditions: in 28 hours; dosage of SMX of 5 or 10 mg in two hours after the infection
Excerpt: A strain of Escherichia coli NIHJ is floated in physiologic saline, and a mixture solution containing the strain of Escherichia coli NINJ and 4% mucin, being equal in absorbance to each other is produced. ICR mice (male) were fed with […] this mixture solution containing the bacteria. As the result, all examples of the mice infected with the strain of Escherichia coli (intra Peritoneal administration of 5 ~ 10 times LDso in mice) died in twelve hours (The first contrast group). Subsequently, 80 m 90% of the group of mice on the dosage of SMX of 5 or 10 mg in two hours after the infection were still alive in 24 hours. The rate of survival of the group of mice decreased to 10 ~ 20% in 28 hours.

SMILES: Cc1cc(NS(=O)(=O)c2ccc(N)cc2)no1 [SMX, sulfamethoxazol]
- MIC ([1]; Staphylococcus aureus, 209P, SMX solely used, in a test tube, read-out: minimum inhibition concentration (MIC) of SMX): 50 µg/mL
- MIC of SMX ([1]; chitosan added at a rate of 2.5 µg/mℓ): 3.1 µg/mL
- anti-bacterial action is increased ([1]; chitosan added at a rate of 2.5 µg/mℓ, versus SMX solely used): about 16 times SMX
- rate of survival (Escherichia coli NIHJ): 10 ~ 20%
